Consider 19 compounds from patent publication US11149021B2, “N-(azaaryl)cyclolactam-1-carboxamide derivative, preparation method therefor, and use thereof” (Abbisko Therapeutics Co., Ltd., priority 2017, dated 2021).

pIC50: −log10 of the molar value. Read-outs that look alike come from different tables or passages of the source. Bounds are passed on as bounds.

In one experiment the target is T1, CSF-1R (Homo sapiens, UniProt P07333).
T1 construct: 3.95 nM of CSF-1R, 500 μM of ATP
As to the kind of experiment: CSF-1R in vitro biochemical kinase study (ADP-Glo assay).

Experiment [1] relates to M-NFS-60 mouse myeloid leukemia lymphocytes. As to the kind of experiment: CSF-1R cell proliferation study (Cell Titer Glo).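 For all read-outs here: M-CSF-driven proliferation, viable cells quantified as ATP by luminescence, compounds tested as 3-fold serial dilutions, values from four-parameter curve fits.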 Type of experiment: cell-based. To be noted: Lymphocyte, 72 h; for pIC50: M-NFS-60 cells, M-CSF, 3 days, CTG, * = average of multiple tests. On the technique in general: Cellular ATP, detected with luciferase, serves as a proxy for viable cell number.
Method: Functional effects of compounds on cell proliferation were evaluated by using Cell Titer Glo (CTG) study in the present invention. […] Since ATP is an index for viable cell metabolism, CTG (Promega, #G7573) reagent is a homogeneous detection method for detecting the number of viable cells in the culture by quantifying ATP. Therefore, compound-mediated inhibition for cell proliferation/survival was evaluated by quantifying ATP content in cells, and the specific experimental process was as follows:
3. 10 μL of culture medium containing M-CSF with 10-fold of the final concentration was then added to each well;
4. dosage effect was evaluated by testing the 3-fold serial dilutions of the compound;
5. after the cells were incubated for 3 days at 37° C. and 5% CO2, the inhibition on cell survival was quantified after 50 μL of CTG was added and the luminescence assay was performed;
6. the compound concentration leading to half maximal inhibitory (IC50) and the compound concentration leading to absolute half maximal inhibitory (Absolute IC50) was measured by a plate reader (M1000, Tecan) and a four-parameter curve fit in Graphpad Prism 7.

The mark [2] stands for this setting: read-out: Cytological experiment CS1-1R Absolute IC50 (nM).
The mark [3] stands for this setting: read-out: Cytological experiment CSF-1R IC50 (nM).
The mark [4] stands for this setting: read-out: Cytological experiment CSF-1R IC50.
[5] abbreviates: absolute half maximal inhibition, read-out: Cytological experiment CS1-1R Absolute IC50.

T1 sequence (P07333 20-972): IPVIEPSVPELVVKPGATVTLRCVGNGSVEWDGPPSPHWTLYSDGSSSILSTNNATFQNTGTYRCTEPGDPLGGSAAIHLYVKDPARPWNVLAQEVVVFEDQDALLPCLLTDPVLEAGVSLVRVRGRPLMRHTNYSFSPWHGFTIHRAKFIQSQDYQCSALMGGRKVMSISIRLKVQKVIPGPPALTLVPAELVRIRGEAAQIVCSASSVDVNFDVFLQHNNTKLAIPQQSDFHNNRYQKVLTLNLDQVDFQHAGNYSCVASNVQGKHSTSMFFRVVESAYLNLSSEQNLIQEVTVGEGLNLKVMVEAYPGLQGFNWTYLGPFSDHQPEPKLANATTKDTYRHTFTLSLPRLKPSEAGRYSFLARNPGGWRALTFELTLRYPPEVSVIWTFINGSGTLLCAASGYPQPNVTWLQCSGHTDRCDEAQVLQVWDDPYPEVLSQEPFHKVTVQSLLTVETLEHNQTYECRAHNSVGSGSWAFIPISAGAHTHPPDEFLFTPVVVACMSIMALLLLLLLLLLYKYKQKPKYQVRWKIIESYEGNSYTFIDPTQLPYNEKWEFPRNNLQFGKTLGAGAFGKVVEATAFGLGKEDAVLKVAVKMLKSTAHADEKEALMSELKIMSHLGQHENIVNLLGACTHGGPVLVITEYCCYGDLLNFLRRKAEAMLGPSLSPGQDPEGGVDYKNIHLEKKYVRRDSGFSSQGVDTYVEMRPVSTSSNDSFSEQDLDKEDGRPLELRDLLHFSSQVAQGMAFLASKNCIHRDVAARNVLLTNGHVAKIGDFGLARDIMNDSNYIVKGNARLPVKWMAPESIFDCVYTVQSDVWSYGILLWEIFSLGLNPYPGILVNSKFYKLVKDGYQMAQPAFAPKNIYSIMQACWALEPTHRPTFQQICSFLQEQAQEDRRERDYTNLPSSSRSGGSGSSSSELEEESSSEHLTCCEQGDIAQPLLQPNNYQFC

A word on the pIC50: it is the IC50 on a negative log10 scale, so that one unit is a factor of ten. A word on the IC50: it is the concentration that gives 50% inhibition. As for `Cc1nc(NC(=O)N2CCC(C)(C)C2=O)ccc1Oc1ccnc(-c2cn[nH]c2)c1` [Example 9, N-(5-((2-(1H-pyrazol-4-yl)pyridin-4-yl)oxy)-6-methylpyridin-2-yl)-3,3-dimethyl-2-oxopyrrolidine-1-carboxamide], on CSF-1R, the pIC50 was 7.10. Moreover, the IC50 in experiment [1] (setting [2]) is 193 nM; in experiment [1] (setting [3]) it was 216 nM.

`CC(=O)Nc1cc(Oc2ccc(NC(=O)N3CCC(C)(C)C3=O)nc2C)ccn1` [Example 23, N-(5-((2-acetylamidopyridin-4-yl)oxy)-6-methylpyridin-2-yl)-3,3-dimethyl-2-oxopyrrolidine-1-carboxamide] gave a pIC50 against CSF-1R of 7.08. The values for the IC50 in experiment [1] (setting [2]) and in experiment [1] (setting [3]) were 384 nM and 620 nM, respectively.

The compound `Cc1nc(NC(=O)N2CCCC2=O)ccc1Oc1ccnc(-c2cnn(C)c2)c1` [Example 38, N-(6-methyl-5-((2-(1-methyl-1H-pyrazol-4-yl)pyridin-4-yl)oxy)pyridin-2-yl)-2-oxopyrrolidine-1-carboxamide] had a pIC50 at CSF-1R of 5.83.

At CSF-1R, `Cc1cc(-c2cc(Oc3ccc(NC(=O)N4CCC(C)(C)C4=O)nc3C)ccn2)ccn1` [Example 4, 3,3-dimethyl-N-(6-methyl-5-((2′-methyl-[2,4′-bipyridin]-4-yl)oxy)pyridin-2-yl)-2-oxopyrrolidine-1-carboxamide] gave a pIC50 of 7.37. The figures for the IC50 in experiment [1] (setting [2]) and in experiment [1] (setting [3]) were 213 nM and 216 nM, respectively.

The compound `Cc1nc(NC(=O)N2CCC(C)(C)C2=O)ccc1Oc1ccnc(-c2cn(C)cn2)c1` [Example 19, 3,3-dimethyl-N-(6-methyl-5-((2-(1-methyl-1H-imidazol-4-yl)pyridin-4-yl)oxy)pyridin-2-yl)-2-oxopyrrolidine-1-carboxamide] showed a pIC50 against CSF-1R of 6.75. Further, the figures for the concentration for half-maximal inhibition (IC50) in experiment [1] (setting [2]) and in experiment [1] (setting [3]) were 647 nM and 644 nM, respectively.

Take `Cc1nc(NC(=O)N2CCC(C)(C)C2=O)ccc1Oc1ccnc(-c2cnn(C(C)C)c2)c1` [Example 13, N-(5-((2-(1-isopropyl-1H-pyrazol-4-yl)pyridin-4-yl)oxy)-6-methylpyridin-2-yl)-3,3-dimethyl-2-oxopyrrolidine-1-carboxamide]: the pIC50 on CSF-1R is 7.00. Also, the IC50 in experiment [1] (setting [2]) is 245 nM; in experiment [1] (setting [3]), 263 nM.

At CSF-1R, `CNc1cc(Oc2ccc(NC(=O)N3CCC(C)(C)C3=O)nc2C)ccn1` [Example 42, 3,3-dimethyl-N-(6-methyl-5-((2-(methylamino)pyridin-4-yl)oxy)pyridin-2-yl)-2-oxopyrrolidine-1-carboxamide] had a pIC50 of 5.64. For the same compound, the IC50 in experiment [1] (setting [2]) and in experiment [1] (setting [3]) was over 2000 nM each time.

For `Cc1nc(NC(=O)N2CCC(C)(C)C2=O)ccc1Oc1ccnc(NC(=O)C2CCN(C)CC2)c1` [Example 25, N-(4-((6-(3,3-dimethyl-2-oxopyrrolidine-1-carboxamido)-2-methylpyridin-3-yl)oxy)pyridin-2-yl)-1-methylpiperidine-4-carboxamide], on CSF-1R, the pIC50 was 5.95. Besides, the IC50 in experiment [1] (setting [2]) came to 1990 nM; in experiment [1] (setting [3]), 1920 nM.

In the case of `Cc1nc(NC(=O)N2CCC(C)(C)C2=O)ccc1Oc1ccnc(NC(=O)C2CC2)c1` [Example 26, N-(5-((2-(cyclopropane-carboxamido)pyridin-4-yl)oxy)-6-methylpyridin-2-yl)-3,3-dimethyl-2-oxopyrrolidine-1-carboxamide], the pIC50 on CSF-1R was 7.12. Moreover, the IC50 in experiment [1] (setting [2]) was found to be 157 nM; in experiment [1] (setting [3]) it was 161 nM.

On to `CNC(=O)c1cc(Oc2ccc(NC(=O)N3CCC(C)(C)C3=O)nc2C)ccn1` [Example 27, 4-((6-(3,3-dimethyl-2-oxopyrrolidine-1-carboxamido)-2-methylpyridin-3-yl)oxy)-N-methylpicolinamide], for which the negative logarithm of the IC50 (pIC50) on CSF-1R was 6.87. Besides, the IC50 in experiment [1] (setting [2]) was found to be 441 nM; in experiment [1] (setting [3]), 487 nM.

On CSF-1R, `[2H]C([2H])([2H])n1cc(-c2cc(Oc3ccc(NC(=O)N4CCCC(C)(C)C4=O)nc3C)ccn2)cn1` [Example 39, 3,3-dimethyl-N-(6-methyl-5-((2-(1-(methyl-d3)-1H-pyrazol-4-yl)pyridin-4-yl)oxy)pyridin-2-yl)-2-oxopiperidine-1-carboxamide] showed a pIC50 of 7.69. Further, the IC50 was determined as 35 nM in experiment [1] (setting [2]) and 48.3 nM in experiment [1] (setting [3]).

Compound `COCCn1cc(-c2cc(Oc3ccc(NC(=O)N4CCC(C)(C)C4=O)nc3C)ccn2)cn1` [Example 7, N-(5-((2-(1-(2-methoxyethyl)-1H-pyrazol-4-yl)pyridin-4-yl)oxy)-6-methylpyridin-2-yl)-3,3-dimethyl-2-oxopyrrolidine-1-carboxamide] had a pIC50 against CSF-1R of 7.14. The results for the IC50 in experiment [1] (setting [2]) and in experiment [1] (setting [3]) were 203 nM and 222 nM, respectively.

At CSF-1R, `CCCn1cc(-c2cc(Oc3ccc(NC(=O)N4CCC(C)(C)C4=O)nc3C)ccn2)cn1` [Example 14, 3,3-dimethyl-N-(6-methyl-5-((2-(1-propyl-1H-pyrazol-4-yl)pyridin-4-yl)oxy)pyridin-2-yl)-2-oxopyrrolidine-1-carboxamide] gave a pIC50 of 7.33. Besides, the results for the IC50 in experiment [1] (setting [2]) and in experiment [1] (setting [3]) were 115 nM and 118 nM, respectively.

`Cc1nc(NC(=O)N2CCC(C)C2=O)ccc1Oc1ccnc(-c2cnn(C)c2)c1` (stereo not shown) [Example 32, 3-methyl-N-(6-methyl-5-((2-(1-methyl-1H-pyrazol-4-yl)pyridin-4-yl)oxy)pyridin-2-yl)-2-oxopyrrolidine-1-carboxamide]: on CSF-1R, the pIC50 is 6.49. In addition, the IC50 in experiment [1] (setting [2]) came out at 782 nM; in experiment [1] (setting [3]), 667 nM.

`Cc1nc(NC(=O)N2CCC(C)(C)C2=O)ccc1Oc1ccnc(-c2cnn([C@H]3CCOC3)c2)c1` [Example 12, (S)-3,3-dimethyl-N-(6-methyl-5-((2-(1-(tetrahydrofuran-3-yl)-1H-pyrazol-4-yl)pyridin-4-yl)oxy)pyridin-2-yl)-2-oxopyrrolidine-1-carboxamide] gave a pIC50 against CSF-1R of 7.14. Besides, the IC50 stood at 134 nM in experiment [1] (setting [2]) and 158 nM in experiment [1] (setting [3]).

As for `Cc1nc(NC(=O)N2CCC(C)(C)C2=O)ccc1Oc1ccnc(-c2cnn(C3COC3)c2)c1` [Example 18, 3,3-dimethyl-N-(6-methyl-5-((2-(1-(oxetan-3-yl)-1H-pyrazol-4-yl)pyridin-4-yl)oxy)pyridin-2-yl)-2-oxopyrrolidine-1-carboxamide], the pIC50 in experiment [1] (setting [4]) is 6.90; in experiment [1] (setting [5]) it was 6.94.

For `Cc1nc(NC(=O)N2CCC(C)(C)C2=O)ccc1Oc1ccnc(-c2cnn(C3CCN(C)C3)c2)c1` (stereo not shown) [Example 17], on CSF-1R, the pIC50 is 7.00.

Turning to `Cc1nc(NC(=O)N2CCC(C)(C)C2=O)ccc1Oc1ccnc(-c2cnn(CC(C)(C)O)c2)c1` [Example 16, N-(5-((2-(1-(2-hydroxy-2-methylpropyl)-1H-pyrazol-4-yl)pyridin-4-yl)oxy)-6-methylpyridin-2-yl)-3,3-dimethyl-2-oxopyrrolidine-1-carboxamide], the pIC50 against CSF-1R was 6.64.

For `Cc1nc(NC(=O)N2CCC(C)(OCc3ccccc3)C2=O)ccc1Oc1ccnc(-c2cnn(C)c2)c1` (stereo not shown) [Example 36, 3-(benzyloxy)-3-methyl-N-(6-methyl-5-((2-(1-methyl-1H-pyrazol-4-yl)pyridin-4-yl)oxy)pyridin-2-yl)-2-oxopyrrolidine-1-carboxamide], the pIC50 in experiment [1] (setting [4]) was 6.30; in experiment [1] (setting [5]), 6.14.
